We go through two compounds from patent US12358922B1, “Berberine alpha-ketoglutarate salt, crystalline form, methods of preparation and applications thereof” (priority 2024, dated 2025).

Data set [1] is described as follows: Solubility measurement of berberine salts in water (Example 3). The following applies: room temperature (about 20° C.).
The conditions of data set [2]: cited from earlier work.

Regarding berberine hemi-sulfate, the “solubility in water at room temperature” value in data set [1] is > 20 mg/mL.
For the compound `COc1ccc2cc3[n+](cc2c1OC)CCc1cc2c(cc1-3)OCO2` [berberine chloride, berberine chloride dihydrate], the loss of water result in data set [2] (elevated temperature or low humidity environment) was “more than 8%”. The uptake of water result in data set [2] (in water or a high humidity environment, converts to tetrahydrate form) is reported as “about 8%”.
